Test results reported in ChEMBL document CHEMBL5528082 (J Med Chem, 2024).
In brackets after ≈: the same amount, converted by molar mass.

What was measured:
Staphylococcus aureus [1] = test: Antibacterial activity against TMP-resistant Staphylococcus aureus BHKS 227 incubated for 24 hrs by CLSI based broth microdilution assay; assay type: functional
Staphylococcus aureus [2] = test: Antibacterial activity against Staphylococcus aureus USA 300 incubated for 24 hrs by CLSI based broth microdilution assay; assay type: functional
[3] = Cytotoxicity against human NCM460 cells assessed as inhibition rate of cell growth at 100 uM incubated for 24 hrs by CCK8 assay relative to control; assay type: toxicity, cell-based
[4] = Cytotoxicity against HEK293 cells assessed as inhibition rate of cell growth at 100 uM incubated for 24 hrs by CCK8 assay relative to control; assay type: toxicity, cell-based; conditions: human
Dihydrofolate reductase [5] = target: Dihydrofolate reductase (Staphylococcus aureus, UniProt P0A017); test: Inhibition of Staphylococcus aureus DHFR expressed in Escherichia coli BL21 (DE3) using DHF as substrate preincubated for 10 mins followed by substrate addition measured for 10 mins in presence of NADPH by spectrophotometry
Sequence of Dihydrofolate reductase (Staphylococcus aureus, UniProt P0A017) (P0A017 whole entry): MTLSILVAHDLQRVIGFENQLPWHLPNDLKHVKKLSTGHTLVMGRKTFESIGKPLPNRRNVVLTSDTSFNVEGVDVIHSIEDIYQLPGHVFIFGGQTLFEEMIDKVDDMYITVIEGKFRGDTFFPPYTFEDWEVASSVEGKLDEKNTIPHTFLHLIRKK

[6] = system: Mycobacterium tuberculosis; test: Antibacterial activity against Mycobacterium tuberculosis H37Ra; assay type: functional
Staphylococcus aureus [7] = test: Antibacterial activity against TMP-resistant Staphylococcus aureus BHKS 721 incubated for 24 hrs by CLSI based broth microdilution assay; assay type: functional
Dihydrofolate reductase [8] = target: T1, Dihydrofolate reductase (Homo sapiens, UniProt P00374); test: Inhibition of human DHFR
T1 sequence (P00374 whole entry): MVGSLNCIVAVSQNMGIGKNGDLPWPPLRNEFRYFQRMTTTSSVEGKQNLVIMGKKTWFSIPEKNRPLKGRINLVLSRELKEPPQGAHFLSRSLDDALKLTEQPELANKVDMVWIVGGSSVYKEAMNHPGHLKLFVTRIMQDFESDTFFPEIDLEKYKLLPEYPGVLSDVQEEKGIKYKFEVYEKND

Dihydrofolate reductase [9] = target: T2, Dihydrofolate reductase (Mycobacterium tuberculosis, UniProt P9WNX1); test: Inhibition of Mycobacterium tuberculosis DHFR
T2 sequence (P9WNX1 whole entry): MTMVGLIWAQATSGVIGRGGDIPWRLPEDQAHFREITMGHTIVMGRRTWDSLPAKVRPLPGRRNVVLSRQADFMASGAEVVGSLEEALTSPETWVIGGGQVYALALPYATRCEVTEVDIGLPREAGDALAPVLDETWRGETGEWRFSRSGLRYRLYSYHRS

Staphylococcus aureus [10] = test: Antibacterial activity against TMP-resistant Staphylococcus aureus BHKS 723 incubated for 24 hrs by CLSI based broth microdilution assay; assay type: functional
Staphylococcus aureus [11] = test: Antibacterial activity against Staphylococcus aureus ATCC 25923 incubated for 24 hrs by CLSI based broth microdilution assay; assay type: functional
Staphylococcus aureus [12] = test: Antibacterial activity against TMP-resistant Staphylococcus aureus BHKS 231 incubated for 24 hrs by CLSI based broth microdilution assay; assay type: functional
[13] = system: Dihydrofolate reductase (Staphylococcus aureus); conditions: dose 100.0 nM

COc1cc(C(C)C)c(Oc2cnc(N)nc2N)cc1I
MIC (Staphylococcus aureus [1]): 0.5 µg/mL (≈ 1.25 µM)
MIC (Staphylococcus aureus [2]): 0.063 µg/mL (≈ 0.157 µM)
inhibition at 24 h, 100 µM [3]: 32.1%
inhibition at 24 h, 100 µM [4]: 26.1%
IC50 (Dihydrofolate reductase [5]): 32.9 nM
MIC [6]: 50 µg/mL (≈ 125 µM)
MIC (Staphylococcus aureus [7]): 8 µg/mL (≈ 20 µM)
IC50 (Dihydrofolate reductase [8]): 176000 nM
IC50 (Dihydrofolate reductase [9]): 3500 nM
MIC (Staphylococcus aureus [10]): 8 µg/mL (≈ 20 µM)
MIC (Staphylococcus aureus [11]): 0.125 µg/mL (≈ 0.312 µM)

Cc1cc(NS(=O)(=O)c2ccc(N)cc2)no1 [SULFAMETHOXAZOLE]
MIC (Staphylococcus aureus [12]): 256 µg/mL (≈ 1010 µM)
MIC (Staphylococcus aureus [1]): 4 µg/mL (≈ 15.8 µM)
MIC (Staphylococcus aureus [2]): 2 µg/mL (≈ 7.9 µM)
MIC (Staphylococcus aureus [7]): 0.5 µg/mL (≈ 1.97 µM)
MIC (Staphylococcus aureus [10]): 4 µg/mL (≈ 15.8 µM)
MIC (Staphylococcus aureus [11]): 2 µg/mL (≈ 7.9 µM)

COc1cc(C(C)C)c(Oc2cnc(N)nc2N)cc1-c1ccc(C(=O)O)cc1
MIC (Staphylococcus aureus [1]): < 0.25 µg/mL
MIC (Staphylococcus aureus [2]): 0.063 µg/mL (≈ 0.16 µM)
inhibition at 24 h, 100 µM [3]: 6.53%
inhibition at 24 h, 100 µM [4]: 29.9%
IC50 (Dihydrofolate reductase [5]): 4.44 nM
MIC (Staphylococcus aureus [7]): 2 µg/mL (≈ 5.07 µM)
inhibition [13]: 45.1%
MIC (Staphylococcus aureus [10]): 2 µg/mL (≈ 5.07 µM)
MIC (Staphylococcus aureus [11]): 0.063 µg/mL (≈ 0.16 µM)

COc1cc(C(C)C)c(Oc2cnc(N)nc2N)cc1-c1ccc(Cl)c(C(F)(F)F)c1
MIC (Staphylococcus aureus [1]): 2 µg/mL (≈ 4.42 µM)
MIC (Staphylococcus aureus [2]): 0.5 µg/mL (≈ 1.1 µM)
inhibition at 24 h, 100 µM [3]: 37.8%
inhibition at 24 h, 100 µM [4]: 41%
IC50 (Dihydrofolate reductase [5]): 142 nM
MIC (Staphylococcus aureus [7]): 4 µg/mL (≈ 8.83 µM)
inhibition [13]: 67.4%
MIC (Staphylococcus aureus [10]): 4 µg/mL (≈ 8.83 µM)
MIC (Staphylococcus aureus [11]): 0.5 µg/mL (≈ 1.1 µM)

COc1cc(C(C)C)c(Oc2cnc(N)nc2N)cc1-c1ccc(F)cc1
MIC (Staphylococcus aureus [1]): 1 µg/mL (≈ 2.71 µM)
MIC (Staphylococcus aureus [2]): 0.25 µg/mL (≈ 0.679 µM)
inhibition at 24 h, 100 µM [3]: 60.3%
inhibition at 24 h, 100 µM [4]: 46.9%
IC50 (Dihydrofolate reductase [5]): 69.5 nM
MIC (Staphylococcus aureus [7]): 16 µg/mL (≈ 43.4 µM)
inhibition [13]: 27.2%
MIC (Staphylococcus aureus [10]): 16 µg/mL (≈ 43.4 µM)
MIC (Staphylococcus aureus [11]): 0.25 µg/mL (≈ 0.679 µM)

COc1cc(C(C)C)c(Oc2cnc(N)nc2N)cc1-c1cc(Cl)cc(Cl)c1
MIC (Staphylococcus aureus [1]): 1 µg/mL (≈ 2.38 µM)
MIC (Staphylococcus aureus [2]): 0.125 µg/mL (≈ 0.298 µM)
inhibition at 24 h, 100 µM [3]: 66.2%
inhibition at 24 h, 100 µM [4]: 39.7%
IC50 (Dihydrofolate reductase [5]): 15.4 nM
MIC (Staphylococcus aureus [7]): 4 µg/mL (≈ 9.54 µM)
inhibition [13]: 78.6%
MIC (Staphylococcus aureus [10]): 4 µg/mL (≈ 9.54 µM)
MIC (Staphylococcus aureus [11]): 0.125 µg/mL (≈ 0.298 µM)

COc1cc(C(C)C)c(Oc2cnc(N)nc2N)cc1-c1cc(F)cc(F)c1
MIC (Staphylococcus aureus [1]): 4 µg/mL (≈ 10.4 µM)
MIC (Staphylococcus aureus [2]): 0.5 µg/mL (≈ 1.29 µM)
inhibition at 24 h, 100 µM [3]: 52.1%
inhibition at 24 h, 100 µM [4]: 45.2%
IC50 (Dihydrofolate reductase [5]): 41.8 nM
MIC (Staphylococcus aureus [7]): 32 µg/mL (≈ 82.8 µM)
inhibition [13]: > 100%
MIC (Staphylococcus aureus [10]): 32 µg/mL (≈ 82.8 µM)
MIC (Staphylococcus aureus [11]): 1 µg/mL (≈ 2.59 µM)

CCCCCOc1cc(C(C)C)c(Oc2cnc(N)nc2N)cc1I
MIC (Staphylococcus aureus [1]): 2 µg/mL (≈ 4.38 µM)
MIC (Staphylococcus aureus [2]): 0.125 µg/mL (≈ 0.274 µM)
inhibition at 24 h, 100 µM [3]: 41.5%
inhibition at 24 h, 100 µM [4]: 64.9%
IC50 (Dihydrofolate reductase [5]): 8.36 nM
MIC (Staphylococcus aureus [7]): 4 µg/mL (≈ 8.77 µM)
inhibition [13]: 45.8%
MIC (Staphylococcus aureus [10]): 4 µg/mL (≈ 8.77 µM)
MIC (Staphylococcus aureus [11]): 0.125 µg/mL (≈ 0.274 µM)

COc1cc(C(C)C)c(Oc2cnc(N)nc2N)cc1-c1ccc(C(C)C)cc1
MIC (Staphylococcus aureus [1]): 1 µg/mL (≈ 2.55 µM)
MIC (Staphylococcus aureus [2]): 0.25 µg/mL (≈ 0.637 µM)
inhibition at 24 h, 100 µM [3]: 44%
inhibition at 24 h, 100 µM [4]: 46.9%
IC50 (Dihydrofolate reductase [5]): 1.81 nM
MIC (Staphylococcus aureus [7]): 4 µg/mL (≈ 10.2 µM)
IC50 (Dihydrofolate reductase [8]): 2910 nM
inhibition [13]: 55.7%
MIC (Staphylococcus aureus [10]): 4 µg/mL (≈ 10.2 µM)
MIC (Staphylococcus aureus [11]): 0.25 µg/mL (≈ 0.637 µM)

COc1ccc(Oc2cnc(N)nc2N)cc1-c1ccc(OC(F)(F)F)cc1
MIC (Staphylococcus aureus [1]): 2 µg/mL (≈ 5.1 µM)
MIC (Staphylococcus aureus [2]): 0.002 µg/mL (≈ 0.0051 µM)
inhibition at 24 h, 100 µM [3]: 69.9%
inhibition at 24 h, 100 µM [4]: 39.4%
IC50 (Dihydrofolate reductase [5]): 15.9 nM
MIC (Staphylococcus aureus [7]): 4 µg/mL (≈ 10.2 µM)
inhibition [13]: 51.1%
MIC (Staphylococcus aureus [10]): 4 µg/mL (≈ 10.2 µM)
MIC (Staphylococcus aureus [11]): 0.002 µg/mL (≈ 0.0051 µM)

COc1cc(C(C)C)c(Oc2cnc(N)nc2N)cc1-c1ccc(C(F)(F)F)cc1
MIC (Staphylococcus aureus [1]): 2 µg/mL (≈ 4.78 µM)
MIC (Staphylococcus aureus [2]): 0.5 µg/mL (≈ 1.19 µM)
inhibition at 24 h, 100 µM [3]: 65%
inhibition at 24 h, 100 µM [4]: 27.4%
IC50 (Dihydrofolate reductase [5]): 60.2 nM
MIC (Staphylococcus aureus [7]): 16 µg/mL (≈ 38.2 µM)
inhibition [13]: 68.1%
MIC (Staphylococcus aureus [10]): 16 µg/mL (≈ 38.2 µM)
MIC (Staphylococcus aureus [11]): 0.5 µg/mL (≈ 1.19 µM)

COc1cc(C(C)C)c(Oc2cnc(N)nc2N)cc1-c1ccc(C(C)(C)C)cc1
MIC (Staphylococcus aureus [1]): 4 µg/mL (≈ 9.84 µM)
MIC (Staphylococcus aureus [2]): 0.5 µg/mL (≈ 1.23 µM)
inhibition at 24 h, 100 µM [3]: 65.6%
inhibition at 24 h, 100 µM [4]: 20.7%
IC50 (Dihydrofolate reductase [5]): 37.9 nM
MIC (Staphylococcus aureus [7]): 4 µg/mL (≈ 9.84 µM)
inhibition [13]: 54.3%
MIC (Staphylococcus aureus [10]): 4 µg/mL (≈ 9.84 µM)
MIC (Staphylococcus aureus [11]): 0.5 µg/mL (≈ 1.23 µM)

COc1cc(C(C)C)c(Oc2cnc(N)nc2N)cc1-c1ccc(Cl)cc1
MIC (Staphylococcus aureus [1]): 1 µg/mL (≈ 2.6 µM)
MIC (Staphylococcus aureus [2]): 0.25 µg/mL (≈ 0.65 µM)
inhibition at 24 h, 100 µM [3]: 69.1%
inhibition at 24 h, 100 µM [4]: 16.4%
IC50 (Dihydrofolate reductase [5]): 66.6 nM
MIC (Staphylococcus aureus [7]): 16 µg/mL (≈ 41.6 µM)
inhibition [13]: 94.3%
MIC (Staphylococcus aureus [10]): 16 µg/mL (≈ 41.6 µM)
MIC (Staphylococcus aureus [11]): 0.25 µg/mL (≈ 0.65 µM)
